The subject of one test is M. tb. 311. The experiment in a line: microbe, parasite or virus in culture. Type of test: cell-based. The note with it: Mycobacterium tuberculosis, 99% (2 log) inhibition, pH 5.8.
Test [1] deals with Mycobacterium tuberculosis (laboratory mutant, nitrosoguanidine induced, resistant to pyrazinamide). Format: cell-based. Further details: MIC: unit not given beside the values. The note with it: for MIC: pH 5.8.
Test [2] deals with Mycobacterium tuberculosis (laboratory mutant, nitrosoguanidine induced, resistant to pyrazinoic acid). Type of test: cell-based. Further details: MIC: unit not given beside the values.
In test [3] the test system is Mycobacterial populations. The note with it: cited from earlier work.

These results are taken from patent US4962111A (priority 1989, dated 1990).

Values after ≈ are worked out from the molar mass of the structure shown. Values joined by “and” are separate entries in the source; they are usually repeats but may differ in a detail not shown here. Identical values can stand only once. A value given as a limit tells only on which side of the number the result lay.

`C=CCOC(=O)c1cnccn1` [Allyl Pyrazinoate] yielded an MIC against M. tb. 311 of 6.25 µg/mL (≈ 38.1 µM).
Consider `CCCOC(=O)c1cnccn1` [n-Propyl Pyrazinoate], for which the MIC was 12.5 and 6.25 in test [1]; 6.25 µg/mL (≈ 37.6 µM) in the test with M. tb. 311.
For the molecule `Cc1ccc(OC(=O)c2cnccn2)cc1` [p-Tolyl Pyrazinoate], the MIC in test [1] was 12.5 and 25; against M. tb. 311, 12.5 µg/mL (≈ 58.4 µM); in test [2] (pH 5.8), 12.5 and 6.25.
As for `Nc1ccc(C(=O)O)c(O)c1` [p-aminosalicylic acid], the “suppression of emergence of resistance” value in test [3] (combination with streptomycin) is “can delay development of streptomycin resistance”.
Consider `NC(=O)c1cnccn1` [pyrazinamide], for which the “concentration required to achieve a 99% inhibition of growth” value in test [1] and in test [2] was above 200 µg/mL in each case. The MIC in the test with M. tb. 311 is above 200 µg/mL. For the same molecule, in test [3] (when used alone), the development of resistance entry was “resistance develops quickly”.
In turn, `O=C(OCC(F)(F)F)c1cnccn1` [β, β, β-Trifluoroethyl Pyrazinoate] registered an MIC with M. tb. 311 of 25 µg/mL (≈ 121 µM).
